Experiment [1] deals with T1, Serine/threonine-protein kinase Nek2 (Homo sapiens, UniProt P51955).
T1 sequence (P51955 whole entry): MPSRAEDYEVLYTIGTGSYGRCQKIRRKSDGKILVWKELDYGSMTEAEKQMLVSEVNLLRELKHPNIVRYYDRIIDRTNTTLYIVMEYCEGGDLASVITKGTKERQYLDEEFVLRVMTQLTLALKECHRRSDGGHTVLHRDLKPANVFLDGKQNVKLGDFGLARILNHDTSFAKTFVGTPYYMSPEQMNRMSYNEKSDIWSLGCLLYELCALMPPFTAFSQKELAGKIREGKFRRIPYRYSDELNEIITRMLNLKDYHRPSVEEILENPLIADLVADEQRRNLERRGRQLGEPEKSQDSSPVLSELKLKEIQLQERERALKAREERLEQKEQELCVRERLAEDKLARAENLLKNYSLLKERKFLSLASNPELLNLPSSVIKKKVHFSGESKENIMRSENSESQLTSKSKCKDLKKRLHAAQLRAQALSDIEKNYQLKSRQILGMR

The target in a further experiment is Ephrin type-A receptor 4 (Homo sapiens, UniProt P54764).
The target of experiment [2] is Mitogen-activated protein kinase kinase kinase kinase 4 (Homo sapiens, UniProt O95819).
In experiment [3] the target is T2, Serine/threonine-protein kinase LATS1 (Homo sapiens, UniProt O95835).
T2 sequence (O95835 whole entry): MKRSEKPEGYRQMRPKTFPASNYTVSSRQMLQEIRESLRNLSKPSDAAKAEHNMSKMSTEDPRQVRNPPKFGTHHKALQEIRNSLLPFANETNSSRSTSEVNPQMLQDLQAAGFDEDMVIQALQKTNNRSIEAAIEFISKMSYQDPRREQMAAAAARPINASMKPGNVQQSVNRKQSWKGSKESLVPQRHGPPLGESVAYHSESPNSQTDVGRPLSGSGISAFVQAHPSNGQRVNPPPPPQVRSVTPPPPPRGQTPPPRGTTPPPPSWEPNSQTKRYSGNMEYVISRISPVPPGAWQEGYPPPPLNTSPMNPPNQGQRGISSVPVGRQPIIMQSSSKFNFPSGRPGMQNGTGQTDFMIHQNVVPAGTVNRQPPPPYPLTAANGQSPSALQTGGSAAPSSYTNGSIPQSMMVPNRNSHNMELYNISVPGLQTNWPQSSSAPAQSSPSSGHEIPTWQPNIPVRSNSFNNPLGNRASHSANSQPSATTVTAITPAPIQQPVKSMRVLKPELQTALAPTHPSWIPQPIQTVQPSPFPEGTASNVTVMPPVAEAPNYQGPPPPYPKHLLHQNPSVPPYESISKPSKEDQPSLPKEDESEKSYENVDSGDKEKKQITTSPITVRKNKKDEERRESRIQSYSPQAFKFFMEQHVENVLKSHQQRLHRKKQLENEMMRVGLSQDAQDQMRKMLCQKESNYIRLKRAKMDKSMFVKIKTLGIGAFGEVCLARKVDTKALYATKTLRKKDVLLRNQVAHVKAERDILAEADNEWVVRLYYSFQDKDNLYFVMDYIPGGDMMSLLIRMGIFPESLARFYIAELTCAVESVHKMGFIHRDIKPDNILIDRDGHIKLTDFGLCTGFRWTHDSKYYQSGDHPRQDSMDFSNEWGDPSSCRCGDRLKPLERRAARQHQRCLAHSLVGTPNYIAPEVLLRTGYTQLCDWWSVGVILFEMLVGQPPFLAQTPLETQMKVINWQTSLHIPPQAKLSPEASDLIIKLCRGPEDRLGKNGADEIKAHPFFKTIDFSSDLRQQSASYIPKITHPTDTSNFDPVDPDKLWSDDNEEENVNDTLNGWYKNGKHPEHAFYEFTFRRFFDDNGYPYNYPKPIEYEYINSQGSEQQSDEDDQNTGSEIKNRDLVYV

For experiment [4], the target named is Ribosomal protein S6 kinase alpha-6 (Homo sapiens, UniProt Q9UK32).
In experiment [5] the target is T3, ATP-dependent RNA helicase DDX1 (Homo sapiens, UniProt Q92499).
T3 sequence (Q92499 whole entry): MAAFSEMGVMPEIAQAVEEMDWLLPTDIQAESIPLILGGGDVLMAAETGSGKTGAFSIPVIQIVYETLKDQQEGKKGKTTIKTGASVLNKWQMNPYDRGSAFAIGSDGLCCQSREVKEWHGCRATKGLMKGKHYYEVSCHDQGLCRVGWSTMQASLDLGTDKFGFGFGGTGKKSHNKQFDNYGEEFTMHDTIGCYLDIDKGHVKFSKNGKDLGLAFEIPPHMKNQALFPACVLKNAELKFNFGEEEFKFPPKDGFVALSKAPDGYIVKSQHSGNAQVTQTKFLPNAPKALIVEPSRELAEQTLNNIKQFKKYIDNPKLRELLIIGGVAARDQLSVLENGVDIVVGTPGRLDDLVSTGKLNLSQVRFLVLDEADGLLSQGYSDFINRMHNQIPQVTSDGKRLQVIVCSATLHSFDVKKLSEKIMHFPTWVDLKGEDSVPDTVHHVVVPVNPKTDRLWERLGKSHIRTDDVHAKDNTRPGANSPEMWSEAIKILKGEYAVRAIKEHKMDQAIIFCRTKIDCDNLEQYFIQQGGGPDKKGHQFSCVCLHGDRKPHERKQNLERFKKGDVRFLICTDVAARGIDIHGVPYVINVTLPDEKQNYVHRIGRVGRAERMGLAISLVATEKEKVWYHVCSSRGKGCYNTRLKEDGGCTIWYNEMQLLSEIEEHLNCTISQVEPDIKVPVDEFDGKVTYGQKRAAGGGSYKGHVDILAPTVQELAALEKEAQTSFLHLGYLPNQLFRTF

The source made the active and inactive calls. Cut-off read from the data, not from the text of the source, for most assays here: actives have a measured Kd and inactives only a lower limit. Some results are limits rather than exact numbers.
Note: in the data inactive means no Kd found up to 30 µM.

Chain of Ribosomal protein S6 kinase alpha-6 (Q9UK32 whole entry): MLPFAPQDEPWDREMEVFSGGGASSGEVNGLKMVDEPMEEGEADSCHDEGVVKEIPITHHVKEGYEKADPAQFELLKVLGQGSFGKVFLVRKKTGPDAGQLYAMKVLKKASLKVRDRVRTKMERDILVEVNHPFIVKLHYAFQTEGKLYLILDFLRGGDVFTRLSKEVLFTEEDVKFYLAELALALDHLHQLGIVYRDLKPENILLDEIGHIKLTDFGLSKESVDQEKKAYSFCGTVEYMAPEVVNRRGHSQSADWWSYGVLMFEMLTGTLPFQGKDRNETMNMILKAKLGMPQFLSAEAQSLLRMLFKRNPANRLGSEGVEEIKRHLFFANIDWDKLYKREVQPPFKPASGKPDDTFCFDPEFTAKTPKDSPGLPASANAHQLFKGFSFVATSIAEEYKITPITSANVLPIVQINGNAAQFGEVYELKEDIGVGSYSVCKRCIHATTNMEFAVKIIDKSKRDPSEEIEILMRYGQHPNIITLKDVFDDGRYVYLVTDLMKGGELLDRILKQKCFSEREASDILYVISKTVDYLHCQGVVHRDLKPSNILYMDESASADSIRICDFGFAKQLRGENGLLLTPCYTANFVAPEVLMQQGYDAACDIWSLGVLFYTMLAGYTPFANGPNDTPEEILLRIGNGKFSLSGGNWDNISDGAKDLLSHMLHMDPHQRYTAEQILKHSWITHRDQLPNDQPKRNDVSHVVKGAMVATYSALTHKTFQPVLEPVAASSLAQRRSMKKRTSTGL
Chain of Ephrin type-A receptor 4 (P54764 whole entry): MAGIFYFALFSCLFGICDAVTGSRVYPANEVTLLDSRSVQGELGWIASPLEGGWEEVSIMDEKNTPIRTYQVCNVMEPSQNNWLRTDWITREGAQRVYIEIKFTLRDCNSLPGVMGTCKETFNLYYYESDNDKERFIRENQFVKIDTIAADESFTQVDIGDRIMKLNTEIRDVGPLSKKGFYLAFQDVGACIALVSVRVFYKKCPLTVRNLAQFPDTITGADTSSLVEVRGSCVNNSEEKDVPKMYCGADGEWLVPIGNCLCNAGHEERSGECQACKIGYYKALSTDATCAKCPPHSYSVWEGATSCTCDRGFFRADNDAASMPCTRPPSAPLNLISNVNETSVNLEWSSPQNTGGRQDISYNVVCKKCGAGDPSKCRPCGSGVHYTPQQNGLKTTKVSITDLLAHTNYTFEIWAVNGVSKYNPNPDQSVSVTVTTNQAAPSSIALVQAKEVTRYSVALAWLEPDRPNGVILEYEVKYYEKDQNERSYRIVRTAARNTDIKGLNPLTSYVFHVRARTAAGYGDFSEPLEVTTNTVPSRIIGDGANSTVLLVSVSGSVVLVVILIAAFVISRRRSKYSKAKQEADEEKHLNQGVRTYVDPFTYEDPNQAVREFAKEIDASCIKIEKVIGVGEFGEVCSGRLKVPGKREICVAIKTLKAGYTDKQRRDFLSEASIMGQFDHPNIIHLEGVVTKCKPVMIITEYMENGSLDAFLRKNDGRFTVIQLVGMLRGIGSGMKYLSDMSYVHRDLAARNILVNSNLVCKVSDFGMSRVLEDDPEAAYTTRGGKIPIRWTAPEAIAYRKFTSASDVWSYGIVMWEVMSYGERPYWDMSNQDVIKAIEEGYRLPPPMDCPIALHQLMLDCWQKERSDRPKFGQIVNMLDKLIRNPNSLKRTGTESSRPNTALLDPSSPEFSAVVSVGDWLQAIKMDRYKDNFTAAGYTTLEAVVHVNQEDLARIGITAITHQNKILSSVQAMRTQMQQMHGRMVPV
Chain of Mitogen-activated protein kinase kinase kinase kinase 4 (O95819 whole entry): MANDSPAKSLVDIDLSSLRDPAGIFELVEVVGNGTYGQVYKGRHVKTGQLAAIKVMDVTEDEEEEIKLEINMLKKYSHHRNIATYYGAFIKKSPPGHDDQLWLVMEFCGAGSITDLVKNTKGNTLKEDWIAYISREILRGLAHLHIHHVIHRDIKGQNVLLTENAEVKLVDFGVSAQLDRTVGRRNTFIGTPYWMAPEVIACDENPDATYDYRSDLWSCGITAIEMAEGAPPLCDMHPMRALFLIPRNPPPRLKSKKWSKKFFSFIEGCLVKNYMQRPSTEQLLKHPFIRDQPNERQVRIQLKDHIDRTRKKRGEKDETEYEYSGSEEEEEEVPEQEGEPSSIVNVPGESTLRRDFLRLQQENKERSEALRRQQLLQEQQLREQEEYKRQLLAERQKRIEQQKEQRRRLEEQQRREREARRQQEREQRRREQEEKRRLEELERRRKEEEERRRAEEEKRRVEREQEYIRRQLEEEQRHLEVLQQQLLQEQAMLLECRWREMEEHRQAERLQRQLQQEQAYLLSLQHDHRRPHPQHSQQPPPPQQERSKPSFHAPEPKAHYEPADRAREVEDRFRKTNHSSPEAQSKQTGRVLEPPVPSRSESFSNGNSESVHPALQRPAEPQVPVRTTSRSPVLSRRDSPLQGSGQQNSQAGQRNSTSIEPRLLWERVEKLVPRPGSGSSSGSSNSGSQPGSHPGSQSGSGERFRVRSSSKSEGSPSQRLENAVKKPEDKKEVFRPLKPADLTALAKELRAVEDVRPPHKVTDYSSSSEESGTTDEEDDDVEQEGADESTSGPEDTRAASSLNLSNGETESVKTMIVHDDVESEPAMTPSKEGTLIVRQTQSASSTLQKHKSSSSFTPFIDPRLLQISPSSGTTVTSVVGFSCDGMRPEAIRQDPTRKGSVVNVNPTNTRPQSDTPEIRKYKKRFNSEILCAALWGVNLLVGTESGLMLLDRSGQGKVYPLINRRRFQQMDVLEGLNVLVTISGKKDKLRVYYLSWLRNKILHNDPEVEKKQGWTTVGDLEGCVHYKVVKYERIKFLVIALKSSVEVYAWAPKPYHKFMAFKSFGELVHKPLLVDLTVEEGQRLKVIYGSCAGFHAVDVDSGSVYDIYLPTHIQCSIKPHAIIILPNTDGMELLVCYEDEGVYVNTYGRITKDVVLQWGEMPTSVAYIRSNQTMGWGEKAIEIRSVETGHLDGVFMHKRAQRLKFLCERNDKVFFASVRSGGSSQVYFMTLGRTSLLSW

Take `COc1ccc(S(=O)(=O)N(C(C)=O)c2ccccc2/C=C/c2cc[n+]([O-])cc2)cc1` [HMN-214]: the Kd (in experiment [1]; at Ephrin type-A receptor 4; in experiment [2]; in experiment [3]; in experiment [4]; in experiment [5]) was > 30 µM (inactive) throughout.
As for `CNC(=O)c1cccc2cc(Oc3ccnc4cc(OCC5(N)CC5)c(OC)cc34)ccc12` [LUCITANIB], the Kd (in experiment [1]; on Ephrin type-A receptor 4; in experiment [2]; in experiment [3]; in experiment [4]; in experiment [5]) was > 30 µM (inactive) each time.
As for `NC1(c2ccc(-c3nc4ccn5c(=O)[nH]nc5c4cc3-c3ccccc3)cc2)CCC1` [MK-2206], the Kd (in experiment [1]; on Ephrin type-A receptor 4; in experiment [2]; in experiment [3]; in experiment [4]; in experiment [5]) was > 30 µM (inactive) throughout.
Turning to `CN(C[C@@H]1COCCO1)S(=O)(=O)Nc1ccc2ccc3ncc(-c4cnn(C)c4)cc3c(=O)c2c1` [MK-2461], the Kd (in experiment [1]; at Ephrin type-A receptor 4; in experiment [2]; in experiment [3]; in experiment [4]; in experiment [5]) was > 30 µM (inactive) each time.
With `Cn1cc(-c2cnc3ccc4ccc(CS(=O)(=O)NCc5ccccn5)cc4c(=O)c3c2)cn1` [MK-8033], the Kd (in experiment [1]; on Ephrin type-A receptor 4; in experiment [2]; in experiment [3]; in experiment [4]; in experiment [5]) was > 30 µM (inactive) each time.
Regarding `FC(F)(F)c1ccc(/C=C/c2nc(COc3ccc(CCCCn4ccnn4)cc3)co2)cc1` [MUBRITINIB], the Kd (in experiment [1]; at Ephrin type-A receptor 4; in experiment [2]; in experiment [3]; in experiment [4]; in experiment [5]) was > 30 µM (inactive) each time.
For `COc1ncc(-c2ccc3nccc(-c4ccnnc4)c3c2)cc1NS(=O)(=O)c1ccc(F)cc1F` [OMIPALISIB], the Kd (in experiment [1]; on Ephrin type-A receptor 4; in experiment [2]; in experiment [3]; in experiment [4]; in experiment [5]) was > 30 µM (inactive) in each case.
For the compound `CCCCCCCCCCCCCCCCCCOP(=O)([O-])OC1CC[N+](C)(C)CC1` [PERIFOSINE], the Kd (in experiment [1]; on Ephrin type-A receptor 4; in experiment [2]; in experiment [3]; in experiment [4]; in experiment [5]) was > 30 µM (inactive) throughout.
For `Cc1nc(Nc2n[nH]c3c2CN(C(=O)N[C@H](CN(C)C)c2ccccc2)C3(C)C)c2sccc2n1` [PF-03758309], the Kd is > 30 µM (inactive) in experiment [1]; > 30 µM (inactive) at Ephrin type-A receptor 4; > 30 µM (inactive) in experiment [2]; 0.157 µM (active) in experiment [3]; 0.004 µM (active) in experiment [4]; > 30 µM (inactive) in experiment [5].
`Cc1cnc(NC(=O)Nc2cc(Br)c(C)cc2OC[C@@H]2CNCCO2)cn1` [RABUSERTIB]: the Kd (in experiment [1]; at Ephrin type-A receptor 4; in experiment [2]; in experiment [3]; in experiment [4]; in experiment [5]) was > 30 µM (inactive) throughout.
Take `CNC(=O)c1cc(Oc2ccc(NC(=O)Nc3cc(C(C)(C)C)nn3-c3ccc4ncccc4c3)c(F)c2)ccn1` [REBASTINIB]: the Kd in experiment [1] was > 30 µM (inactive); at Ephrin type-A receptor 4 it was > 30 µM (inactive); in experiment [2], 2.71 µM (active); in experiment [3], > 30 µM (inactive); in experiment [4] it was > 30 µM (inactive); in experiment [5], > 30 µM (inactive).
For `CO[C@H]1C[C@@H]2CC[C@@H](C)[C@@](O)(O2)C(=O)C(=O)N2CCCC[C@H]2C(=O)O[C@H]([C@H](C)C[C@@H]2CC[C@@H](OP(C)(C)=O)[C@H](OC)C2)CC(=O)[C@H](C)/C=C(\C)[C@@H](O)[C@@H](OC)C(=O)[C@H](C)C[C@H](C)/C=C/C=C/C=C/1C` [RIDAFOROLIMUS], the Kd (in experiment [1]; on Ephrin type-A receptor 4; in experiment [2]; in experiment [3]; in experiment [4]; in experiment [5]) was > 30 µM (inactive) in each case.
As for `N#CC1(c2ccc(NC(=O)c3cccnc3NCc3ccncc3)cc2)CCCC1` [RIVOCERANIB], the Kd (in experiment [1]; on Ephrin type-A receptor 4; in experiment [2]; in experiment [3]; in experiment [4]; in experiment [5]) was > 30 µM (inactive) in each case.
Take `O=c1[nH]ccc2cc(OC3CCNCC3)ccc12` [SAR-407899 FREE BASE]: the Kd (in experiment [1]; at Ephrin type-A receptor 4; in experiment [2]; in experiment [3]; in experiment [4]; in experiment [5]) was > 30 µM (inactive) each time.
For the compound `CN1CCN(CCOc2cc(OC3CCOCC3)c3c(Nc4c(Cl)ccc5c4OCO5)ncnc3c2)CC1` [SARACATINIB], the Kd is > 30 µM (inactive) in experiment [1]; 0.917 µM (active) at Ephrin type-A receptor 4; 1.12 µM (active) in experiment [2]; > 30 µM (inactive) in experiment [3]; > 30 µM (inactive) in experiment [4]; > 30 µM (inactive) in experiment [5].
On to `Cn1cc(-c2cnn3c(N)c(Br)c([C@@H]4CCCNC4)nc23)cn1` [SCH-900776], for which the Kd in experiment [1] is > 30 µM (inactive); at Ephrin type-A receptor 4, > 30 µM (inactive); in experiment [2], > 30 µM (inactive); in experiment [3] it was 4.62 µM (active); in experiment [4] it was 1.27 µM (active); in experiment [5], > 30 µM (inactive).

The values above are taken from ChEMBL document CHEMBL3991601, “The target landscape of clinical kinase drugs” (Science, 2017).
